The values that follow are results of earlier work, collected in publication PMC9851200, “Multiparameter phenotypic screening for endogenous TFEB and TFE3 translocation identifies novel chemical series modulating lysosome function” (Autophagy, 2022).

What all share (parameters): method as in original PKIS2 published data
Series [1] deals with kinases (KINOMEscan panel) (Homo sapiens, UniProt P00533). Conditions: kinase EGFR; Published KINOMEscan; ref original PKIS2 published data; cited from earlier work.
Chain of kinases (KINOMEscan panel) (Homo sapiens, UniProt P00533) (P00533 25-1210): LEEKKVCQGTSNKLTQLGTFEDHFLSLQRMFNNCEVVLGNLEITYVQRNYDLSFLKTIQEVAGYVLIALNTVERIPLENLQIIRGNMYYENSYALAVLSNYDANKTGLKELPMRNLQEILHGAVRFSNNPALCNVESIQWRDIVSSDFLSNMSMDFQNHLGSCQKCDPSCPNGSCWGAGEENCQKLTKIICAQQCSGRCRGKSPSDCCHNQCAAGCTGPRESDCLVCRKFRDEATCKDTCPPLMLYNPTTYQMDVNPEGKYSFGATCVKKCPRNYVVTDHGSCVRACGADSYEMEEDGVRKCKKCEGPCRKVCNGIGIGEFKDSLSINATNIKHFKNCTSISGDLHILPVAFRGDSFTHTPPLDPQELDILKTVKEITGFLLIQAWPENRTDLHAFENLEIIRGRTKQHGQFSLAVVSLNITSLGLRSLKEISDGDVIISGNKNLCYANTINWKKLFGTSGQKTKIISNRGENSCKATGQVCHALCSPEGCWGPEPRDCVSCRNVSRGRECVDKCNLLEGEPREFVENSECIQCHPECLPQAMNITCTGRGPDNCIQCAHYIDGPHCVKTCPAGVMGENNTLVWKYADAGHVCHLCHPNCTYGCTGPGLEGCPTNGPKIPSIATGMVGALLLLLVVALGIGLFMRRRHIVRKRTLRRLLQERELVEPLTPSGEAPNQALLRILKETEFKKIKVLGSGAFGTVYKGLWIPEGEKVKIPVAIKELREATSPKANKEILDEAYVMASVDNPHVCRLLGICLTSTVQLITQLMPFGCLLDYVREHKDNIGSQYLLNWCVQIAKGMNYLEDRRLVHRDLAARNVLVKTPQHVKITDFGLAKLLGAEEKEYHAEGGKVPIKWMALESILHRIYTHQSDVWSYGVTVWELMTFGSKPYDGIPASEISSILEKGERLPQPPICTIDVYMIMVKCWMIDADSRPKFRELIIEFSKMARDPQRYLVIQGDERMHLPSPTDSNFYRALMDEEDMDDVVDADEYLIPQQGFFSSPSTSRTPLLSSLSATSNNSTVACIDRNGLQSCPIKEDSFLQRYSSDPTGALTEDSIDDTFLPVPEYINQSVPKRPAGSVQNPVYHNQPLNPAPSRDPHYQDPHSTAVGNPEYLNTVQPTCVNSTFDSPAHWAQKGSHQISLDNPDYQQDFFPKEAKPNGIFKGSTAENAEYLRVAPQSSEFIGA
For series [2], the target named is kinases (KINOMEscan panel) (Homo sapiens, UniProt Q7KZI7). Conditions: MARK2; Published KINOMEscan; ref original PKIS2 published data; cited from earlier work.
Chain of kinases (KINOMEscan panel) (Homo sapiens, UniProt Q7KZI7) (Q7KZI7 whole entry): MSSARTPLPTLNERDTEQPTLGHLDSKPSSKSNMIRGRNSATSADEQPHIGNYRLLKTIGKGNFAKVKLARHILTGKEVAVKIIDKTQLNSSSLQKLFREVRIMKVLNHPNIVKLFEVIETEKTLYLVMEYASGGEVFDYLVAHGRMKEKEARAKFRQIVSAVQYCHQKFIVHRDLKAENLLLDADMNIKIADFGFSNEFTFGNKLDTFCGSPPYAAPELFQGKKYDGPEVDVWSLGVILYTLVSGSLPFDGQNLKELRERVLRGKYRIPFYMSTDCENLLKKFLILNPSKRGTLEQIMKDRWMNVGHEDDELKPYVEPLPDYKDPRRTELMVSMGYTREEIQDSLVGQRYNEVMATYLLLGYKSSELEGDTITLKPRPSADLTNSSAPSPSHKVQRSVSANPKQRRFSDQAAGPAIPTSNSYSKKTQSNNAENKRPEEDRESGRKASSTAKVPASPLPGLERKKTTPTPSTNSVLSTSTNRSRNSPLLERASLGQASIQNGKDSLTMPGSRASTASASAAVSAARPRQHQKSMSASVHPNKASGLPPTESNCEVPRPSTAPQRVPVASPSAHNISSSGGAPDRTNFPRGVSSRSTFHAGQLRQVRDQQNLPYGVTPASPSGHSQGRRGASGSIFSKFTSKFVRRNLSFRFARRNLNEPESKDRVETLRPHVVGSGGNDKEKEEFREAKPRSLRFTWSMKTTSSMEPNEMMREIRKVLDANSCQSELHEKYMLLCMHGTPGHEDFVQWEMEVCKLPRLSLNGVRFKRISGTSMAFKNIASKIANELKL
The target in series [3] is T1, kinases (KINOMEscan panel) (Homo sapiens, UniProt Q8IYT8).
T1 sequence (Q8IYT8 1-1036): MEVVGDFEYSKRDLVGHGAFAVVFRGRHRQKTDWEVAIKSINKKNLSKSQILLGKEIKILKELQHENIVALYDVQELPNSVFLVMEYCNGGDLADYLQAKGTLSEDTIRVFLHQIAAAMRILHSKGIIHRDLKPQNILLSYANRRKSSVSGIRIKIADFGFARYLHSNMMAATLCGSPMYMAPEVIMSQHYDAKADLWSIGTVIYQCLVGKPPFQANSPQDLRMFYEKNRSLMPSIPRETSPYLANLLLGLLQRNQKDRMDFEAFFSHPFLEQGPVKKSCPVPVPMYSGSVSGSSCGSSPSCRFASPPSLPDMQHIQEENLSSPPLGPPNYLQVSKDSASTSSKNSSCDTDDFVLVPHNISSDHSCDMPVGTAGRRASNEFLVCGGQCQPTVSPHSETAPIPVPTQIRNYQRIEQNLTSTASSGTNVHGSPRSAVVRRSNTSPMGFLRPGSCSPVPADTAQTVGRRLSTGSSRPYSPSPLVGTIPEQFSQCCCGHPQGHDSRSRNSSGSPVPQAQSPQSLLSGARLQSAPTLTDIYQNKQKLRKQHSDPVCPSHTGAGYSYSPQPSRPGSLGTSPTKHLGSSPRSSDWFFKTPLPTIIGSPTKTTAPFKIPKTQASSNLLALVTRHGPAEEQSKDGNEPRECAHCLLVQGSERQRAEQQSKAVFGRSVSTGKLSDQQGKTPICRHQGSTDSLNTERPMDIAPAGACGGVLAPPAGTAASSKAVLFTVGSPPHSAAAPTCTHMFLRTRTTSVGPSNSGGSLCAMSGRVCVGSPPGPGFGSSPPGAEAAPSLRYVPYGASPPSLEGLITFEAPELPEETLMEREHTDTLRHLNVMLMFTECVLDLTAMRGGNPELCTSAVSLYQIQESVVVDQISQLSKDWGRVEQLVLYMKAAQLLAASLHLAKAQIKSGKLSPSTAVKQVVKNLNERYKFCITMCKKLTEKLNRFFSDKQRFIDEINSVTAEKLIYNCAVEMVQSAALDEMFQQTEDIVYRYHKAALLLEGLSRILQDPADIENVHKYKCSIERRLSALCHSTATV
Conditions: Published KINOMEscan; ref original PKIS2 published data; cited from earlier work.

Series [4] concerns the target T2, kinases (KINOMEscan panel) (Homo sapiens, UniProt Q8WTQ7).
T2 sequence (Q8WTQ7 1-553): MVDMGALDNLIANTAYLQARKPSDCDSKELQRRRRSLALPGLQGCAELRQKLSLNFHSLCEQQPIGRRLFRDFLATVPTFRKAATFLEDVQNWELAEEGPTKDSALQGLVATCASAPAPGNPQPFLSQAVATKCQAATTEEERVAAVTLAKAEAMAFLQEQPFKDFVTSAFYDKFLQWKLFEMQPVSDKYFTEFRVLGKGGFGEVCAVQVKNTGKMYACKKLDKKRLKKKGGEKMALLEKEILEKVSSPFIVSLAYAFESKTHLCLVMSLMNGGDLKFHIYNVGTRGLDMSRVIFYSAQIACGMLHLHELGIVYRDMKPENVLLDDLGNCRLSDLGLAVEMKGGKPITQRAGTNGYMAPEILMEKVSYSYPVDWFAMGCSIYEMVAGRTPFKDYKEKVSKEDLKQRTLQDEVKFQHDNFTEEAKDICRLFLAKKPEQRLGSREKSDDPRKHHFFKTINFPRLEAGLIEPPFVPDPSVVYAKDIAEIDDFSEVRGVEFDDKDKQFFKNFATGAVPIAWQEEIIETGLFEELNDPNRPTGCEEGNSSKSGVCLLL
The settings on record: kinase GRK7; Published KINOMEscan; ref original PKIS2 published data; cited from earlier work.

Series [5] concerns the target kinases (KINOMEscan panel) (Homo sapiens, UniProt Q9Y6R4). Conditions: MAP3K4; Published KINOMEscan; ref original PKIS2 published data; cited from earlier work.

Chain of kinases (KINOMEscan panel) (Homo sapiens, UniProt Q9Y6R4) (Q9Y6R4 whole entry): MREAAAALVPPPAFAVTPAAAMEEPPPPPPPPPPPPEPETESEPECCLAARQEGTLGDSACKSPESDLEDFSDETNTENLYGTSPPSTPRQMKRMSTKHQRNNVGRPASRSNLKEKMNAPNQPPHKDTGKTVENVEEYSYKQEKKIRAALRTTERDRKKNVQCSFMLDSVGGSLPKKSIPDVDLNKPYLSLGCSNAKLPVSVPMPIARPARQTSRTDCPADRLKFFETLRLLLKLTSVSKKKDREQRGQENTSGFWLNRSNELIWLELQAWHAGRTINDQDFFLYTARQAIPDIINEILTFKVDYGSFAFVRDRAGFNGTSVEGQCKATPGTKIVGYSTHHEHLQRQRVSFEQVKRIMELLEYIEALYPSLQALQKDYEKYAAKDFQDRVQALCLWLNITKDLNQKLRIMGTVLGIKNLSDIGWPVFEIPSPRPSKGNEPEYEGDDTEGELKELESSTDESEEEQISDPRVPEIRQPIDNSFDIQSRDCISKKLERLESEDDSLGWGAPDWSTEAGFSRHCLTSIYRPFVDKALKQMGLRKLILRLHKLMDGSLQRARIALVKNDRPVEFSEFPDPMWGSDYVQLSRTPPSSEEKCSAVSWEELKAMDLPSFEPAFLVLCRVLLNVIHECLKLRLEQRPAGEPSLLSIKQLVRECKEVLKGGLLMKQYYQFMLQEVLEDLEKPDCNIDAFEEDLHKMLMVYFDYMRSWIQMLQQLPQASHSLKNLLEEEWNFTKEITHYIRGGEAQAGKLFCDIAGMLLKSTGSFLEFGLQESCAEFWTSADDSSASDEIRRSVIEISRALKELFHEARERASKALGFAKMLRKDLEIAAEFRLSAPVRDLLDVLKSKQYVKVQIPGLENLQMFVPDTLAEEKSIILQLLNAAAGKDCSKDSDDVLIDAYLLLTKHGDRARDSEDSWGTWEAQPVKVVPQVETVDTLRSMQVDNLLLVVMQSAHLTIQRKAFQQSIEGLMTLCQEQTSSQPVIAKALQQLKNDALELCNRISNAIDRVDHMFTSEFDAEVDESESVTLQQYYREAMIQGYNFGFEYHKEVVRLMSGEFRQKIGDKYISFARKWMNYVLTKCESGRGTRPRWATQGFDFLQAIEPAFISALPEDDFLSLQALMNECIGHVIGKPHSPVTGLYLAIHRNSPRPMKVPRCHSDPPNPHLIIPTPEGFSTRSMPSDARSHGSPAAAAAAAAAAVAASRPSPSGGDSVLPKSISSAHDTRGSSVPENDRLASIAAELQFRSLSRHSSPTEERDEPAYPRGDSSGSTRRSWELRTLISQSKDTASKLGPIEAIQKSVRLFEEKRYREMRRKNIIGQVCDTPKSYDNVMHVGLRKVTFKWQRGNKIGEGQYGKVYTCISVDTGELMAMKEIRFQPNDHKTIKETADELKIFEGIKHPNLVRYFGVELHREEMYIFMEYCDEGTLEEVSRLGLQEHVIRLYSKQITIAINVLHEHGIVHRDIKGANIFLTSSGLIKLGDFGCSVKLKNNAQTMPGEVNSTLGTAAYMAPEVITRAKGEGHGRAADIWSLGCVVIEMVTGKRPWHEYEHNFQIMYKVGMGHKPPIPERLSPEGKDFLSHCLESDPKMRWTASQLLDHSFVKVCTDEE

With `Cc1cccc(-c2nc(Nc3ccncc3)c3ccccc3n2)n1` [NK215], the “KINOMEscan EGFR” value in series [1] is 6. The “KINOMEscan MARK2” value in series [2] is recorded as 0. The “KINOMEscan ULK2” value in series [3] was 0. For the same compound, the “KINOMEscan GRK7” value in series [4] is recorded as 0. Also, the “KINOMEscan MAP3K4” value in series [5] is given as 16.
